Measurements: publication PMC10743086, “Immunofluorescence-Based Assay for High-Throughput Analysis of Multidrug Resistance Markers in Non-Small Cell Lung Carcinoma Patient-Derived Cells” (Diagnostics, 2023)

Tests used:
Type in all cases: cell-based, human
NCI-H460 cells = test: Cytotoxicity by immunofluorescence cell scoring (cell counts), NSCLC cell line; details: 24 h treatment
Procedure: (§1) Vinorelbine and pemetrexed were purchased from Selleckchem (Houston, TX, USA). Carboplatin, cisplatin, docetaxel, etoposide, gemcitabine, gefitinib, and paclitaxel were purchased from Sigma-Aldrich Chemie GmbH (Taufkirchen, Germany). The cisplatin, carboplatin, and gemcitabine were dissolved in sterile water, while the etoposide, docetaxel, vinorelbine, paclitaxel, gefitinib, and pemetrexed were dissolved in DMSO and stored at −20 °C. Before treatment, all the stock solutions were freshly diluted in sterile water.
(§2) The compounds were administered 48 h after seeding. The treatment lasted 24 h.
(§3) The immunofluorescence assay for the quantification of MDR markers was optimized to distinguish cancer cells from stromal cells using a cytokeratin 8/18 (CK8/18) antibody cocktail. The cells were fixed with 4% paraformaldehyde for 20 min at RT and washed three times with PBS using the Wellwash Versa microplate washer (Thermo Fisher Scientific, Waltham, MA, USA). The cells were then blocked with 2% bovine serum albumin (BSA) in PBS for 1 h at RT. […] Co-immunostaining with antibodies against MDR markers was performed to detect the presence of ABCB1, ABCC1, and ABCG2 in both the cancer and stromal cells. […] The secondary antibodies were incubated with the cells at RT for 2 h in the dark. […] Finally, the cells were washed three times with PBS and stored at 4 °C in the dark before imaging.
(§4) The fluorescently labeled cells were imaged using the ImageXpress Pico Automated Cell Imaging System (Molecular Devices, San Jose, CA, USA) with a 4x objective after determining the appropriate exposure time for each illumination filter. Analysis of the obtained images was performed using CellReporterXpress software v. 2.8.2.669 (Molecular Devices). The cytotoxicity of the compounds was determined using the Cell Scoring Analysis Protocol. […] Expression of MDR markers was determined using the Multi-Wavelength Cell Scoring Analysis Protocol.

NCI-H460/R cells = test: Cytotoxicity by immunofluorescence cell scoring (cell counts), multidrug-resistant NSCLC cell line; details: 24 h treatment
Text: Human non-small cell lung carcinoma cells (NCI-H460) were purchased from the American Type Culture Collection (Rockville, MD, USA), and normal embryonic lung fibroblasts (MRC-5) were purchased from the European Collection of Authenticated Cell Cultures (Salisbury, UK). Multidrug-resistant NCI-H460/R cells overexpressing ABCB1 were selected from the NCI-H460 cells after selective pressure with doxorubicin [21]. All the cell lines were maintained in MEM medium (Sigma-Aldrich Chemie GmbH, Taufkirchen, Germany) supplemented with 10% FBS, 2 mM L-glutamine, and antibiotic-antimycotic solution. All the cell lines were maintained at 37 °C in a humidified atmosphere with 5% CO2.
as §1, §2, §3, §4

MRC-5 cells = test: Cytotoxicity by immunofluorescence cell scoring (cell counts), normal fibroblasts; details: 24 h treatment
Procedure: as §1, §2, §3, §4

[1] = tested on: ABCB1 expression in MRC-5 cells; test: Immunofluorescence assay of MDR marker ABCB1 expression; details: five concentrations, 24 h
Procedure: as §1, §2, §3, §4

[2] = tested on: ABCB1 expression in NCI-H460 cells; test: as above; details: five concentrations, 24 h
Procedure: as §1, §2, §3, §4

[3] = tested on: ABCB1 expression in NCI-H460/R cells; test: as above; details: five concentrations, 24 h
Procedure: as §1, §2, §3, §4

[4] = tested on: Cancer cells (CK8/18+) of patient-derived NSCLC cultures; test: Cytotoxicity in patient-derived NSCLC cultures, cancer cells; details: 7 days treatment
Procedure: (§5) Tissue samples were collected during surgery, and the NSCLC diagnosis, histological grade, stage, necrosis, and lymph node invasion status were determined by histopathological analysis. […] The surgical specimens were placed in a sterile tube containing antibiotic-antimycotic solution (Sigma-Aldrich Chemie GmbH, Taufkirchen, Germany) and immediately transported to the research laboratory for further processing.
(§6) Upon arrival, the tissue was manually chopped with a surgical blade in a Petri dish under sterile conditions. The samples were cut into 3–5 mm pieces and further dissociated using the Tumor Dissociation Kit (Miltenyi Biotec, Bergisch Gladbach, Germany). The Tumor Dissociation Kit was used to dissociate the cells from the tumor tissue according to the manufacturer’s instructions. The samples were incubated in a 37 °C orbital shaker (KS 4000 ic control, IKA, Königswinter, Germany) at 300 rpm for 90 min. After incubation, the dissociated tissue was placed in DMEM/Ham’s F12 (1:3 ratio) growth medium supplemented with 5% fetal bovine serum (Corning, NY, USA), antibiotic-antimycotic solution, 4 µg/mL hydrocortisone (Sigma-Aldrich Chemie GmbH, Taufkirchen, Germany), 1 µg/mL insulin (Sigma-Aldrich Chemie GmbH, Taufkirchen, Germany), 10 ng/mL epidermal growth factor (BioLegend, San Diego, CA, USA), and 24 µg/mL adenine (Sigma-Aldrich Chemie GmbH, Taufkirchen, Germany). The DMEM and Ham’s F12 growth media were purchased from Sigma-Aldrich Chemie GmbH (Taufkirchen, Germany).
(§7) The dissociated tissue was cultured in T-25 cell culture flasks until cell attachment was observed before the medium was replaced. If no cell attachment was achieved within 7 days, the sample was discarded. Successful patient-derived cultures were maintained at 37 °C in a humidified atmosphere with 5% CO2 and grown to confluence before undergoing further experiments. […] Partial trypsinization was performed by detaching the fibroblast-like cells with 1 mL of 0.05% trypsin for 1 min at 37 °C, followed by 2 min at room temperature (RT).
as §1
(§8) The primary cells were seeded in black, clear bottom 384-well cell culture microplates (Thermo Fisher Scientific, Waltham, MA, USA) in 50 µL of cell growth medium at a density of 1000 cells per well. The compounds were administered 72 h after seeding. The treatment lasted 7 days.
as §3

[5] = tested on: Non-cancer cells (CK8/18-) of patient-derived NSCLC cultures; test: Cytotoxicity in patient-derived NSCLC cultures, non-cancer cells; details: 7 days treatment
Procedure: as §5, §6, §7, §1, §8, §3

[6] = tested on: ABCB1 expression in cancer cells (CK8/18+); test: Immunofluorescence assay of ABCB1 expression in patient-derived NSCLC cultures; details: 7 days
Procedure: as §5, §6, §7, §1, §8, §3

[7] = tested on: ABCC1 expression in cancer cells (CK8/18+); test: Immunofluorescence assay of ABCC1 expression in patient-derived NSCLC cultures
Procedure: as §5, §6, §7, §1, §8, §3

[8] = tested on: ABCG2 expression in cancer cells (CK8/18+); test: Immunofluorescence assay of ABCG2 expression in patient-derived NSCLC cultures; details: 7 days
Procedure: as §5, §6, §7, §1, §8, §3

[9] = tested on: ABCC1 expression in non-cancer cells (CK8/18-); test: Immunofluorescence assay of ABCC1 expression in patient-derived NSCLC cultures, non-cancer cells; details: Table S2
Procedure: as §5, §6, §7, §1, §8, §3

[10] = NCI-H460 (co-culture with MRC-5)
[11] = NCI-H460/R (co-culture with MRC-5)
[12] = MRC-5 (co-culture with NCI-H460)
[13] = MRC-5 (co-culture with NCI-H460/R)
[14] = culture TR58, cancer cells (CK8/18+)
[15] = culture TR64, cancer cells (CK8/18+)
[16] = culture TR65, cancer cells (CK8/18+)
[17] = culture TR84, cancer cells (CK8/18+)
[18] = culture TR87, cancer cells (CK8/18+)
[19] = culture TR58, non-cancer cells (CK8/18-)
[20] = culture TR64, non-cancer cells (CK8/18-)
[21] = culture TR65, non-cancer cells (CK8/18-)
[22] = culture TR84, non-cancer cells (CK8/18-)
[23] = culture TR87, non-cancer cells (CK8/18-)

N.N.O=C([O-])C1(C(=O)[O-])CCC1.[Pt+2] [Carboplatin]
IC50 (NCI-H460 cells; [10]): > 100 µM | IC50 (NCI-H460 cells; NCI-H460 monoculture): > 100 µM | IC50 (NCI-H460/R cells; [11]): > 100 µM | IC50 (NCI-H460/R cells; NCI-H460/R monoculture): > 100 µM | IC50 (MRC-5 cells; [12]): > 100 µM | IC50 (MRC-5 cells; [13]): > 100 µM | IC50 (MRC-5 cells; MRC-5 monoculture): > 100 µM | ABCB1 Expression [1, 12]: no change | ABCB1 Expression [1, 13]: no change | ABCB1 Expression ([1]; MRC-5 monoculture): no change | ABCB1 Expression [2, 10]: no change | ABCB1 Expression ([2]; NCI-H460 monoculture): no change | ABCB1 Expression [3, 11]: no change | ABCB1 Expression ([3]; NCI-H460/R monoculture): no change | IC50 [4, 14]: 60.8 µM | IC50 [4, 15]: 39 µM | IC50 [4, 16]: 22.5 µM | IC50 [4, 17]: 8.15 µM | IC50 [4, 18]: 43.3 µM | IC50 [5, 19]: 27.3 µM | IC50 [5, 20]: 12.8 µM | IC50 [5, 21]: 2.16 µM | IC50 [5, 22]: 1.28 µM | IC50 [5, 23]: 22.9 µM | ABCB1 Expression [6, 14]: no change | ABCB1 Expression [6, 15]: increase (An increase in ABCB1, ABCC1, or ABCG2 expression of at least 20% at a minimum of one concentration is shown in the table.) | ABCB1 Expression [6, 16]: increase (An increase in ABCB1, ABCC1, or ABCG2 expression of at least 20% at a minimum of one concentration is shown in the table.) | ABCB1 Expression [6, 17]: increase (An increase in ABCB1, ABCC1, or ABCG2 expression of at least 20% at a minimum of one concentration is shown in the table.) | ABCB1 Expression [6, 18]: increase (An increase in ABCB1, ABCC1, or ABCG2 expression of at least 20% at a minimum of one concentration is shown in the table.) | ABCC1 expression ([7]; culture TR58, cancer cells (CK8/18+), 7 days): no change | ABCC1 expression ([7]; culture TR64, cancer cells (CK8/18+), 7 days): increase (An increase in ABCB1, ABCC1, or ABCG2 expression of at least 20% at a minimum of one concentration is shown in the table.) | ABCC1 expression ([7]; culture TR65, cancer cells (CK8/18+), 7 days): increase (An increase in ABCB1, ABCC1, or ABCG2 expression of at least 20% at a minimum of one concentration is shown in the table.) | ABCC1 expression ([7]; culture TR84, cancer cells (CK8/18+), 7 days): increase (An increase in ABCB1, ABCC1, or ABCG2 expression of at least 20% at a minimum of one concentration is shown in the table.) | ABCC1 expression ([7]; culture TR87, cancer cells (CK8/18+), 7 days): increase (An increase in ABCB1, ABCC1, or ABCG2 expression of at least 20% at a minimum of one concentration is shown in the table.) | ABCG2 expression [8, 14]: increase (An increase in ABCB1, ABCC1, or ABCG2 expression of at least 20% at a minimum of one concentration is shown in the table.) | ABCG2 expression [8, 15]: increase (An increase in ABCB1, ABCC1, or ABCG2 expression of at least 20% at a minimum of one concentration is shown in the table.) | ABCG2 expression [8, 16]: increase (An increase in ABCB1, ABCC1, or ABCG2 expression of at least 20% at a minimum of one concentration is shown in the table.) | ABCG2 expression [8, 17]: increase (An increase in ABCB1, ABCC1, or ABCG2 expression of at least 20% at a minimum of one concentration is shown in the table.) | ABCG2 expression [8, 18]: increase (An increase in ABCB1, ABCC1, or ABCG2 expression of at least 20% at a minimum of one concentration is shown in the table.)

COc1cc2ncnc(Nc3ccc(F)c(Cl)c3)c2cc1OCCCN1CCOCC1 [gefitinib]
ABCC1 expression ([7]; culture TR58, cancer cells (CK8/18+), Table S2): no change | ABCC1 expression ([7]; culture TR64, cancer cells (CK8/18+), Table S2): no change | ABCC1 expression ([7]; culture TR65, cancer cells (CK8/18+), Table S2): increase (an increase in ABCC1 expression of at least 20% at a minimum of one concentration is shown in the Table.) | ABCC1 expression ([7]; culture TR84, cancer cells (CK8/18+), Table S2): increase (an increase in ABCC1 expression of at least 20% at a minimum of one concentration is shown in the Table.) | ABCC1 expression ([7]; culture TR87, cancer cells (CK8/18+), Table S2): no change | ABCC1 expression [9, 19]: no change | ABCC1 expression [9, 20]: no change | ABCC1 expression [9, 21]: no change | ABCC1 expression [9, 22]: no change | ABCC1 expression [9, 23]: no change
